Target: Mitogen-activated protein kinase 14 (Homo sapiens, UniProt Q16539)
Assay: Homogeneous Time-Resolved Fluorescence (HTRF) Enzyme Assay
Conditions: pH 7; 22 °C
Method: The HTRF signal is calculated as a ratio of the A-counts to B-counts. The signal produced is proportional to the amount of JNK3 or p38 kinase activity present during the kinase reaction phase.

Chain of Mitogen-activated protein kinase 14 (Q16539 whole entry): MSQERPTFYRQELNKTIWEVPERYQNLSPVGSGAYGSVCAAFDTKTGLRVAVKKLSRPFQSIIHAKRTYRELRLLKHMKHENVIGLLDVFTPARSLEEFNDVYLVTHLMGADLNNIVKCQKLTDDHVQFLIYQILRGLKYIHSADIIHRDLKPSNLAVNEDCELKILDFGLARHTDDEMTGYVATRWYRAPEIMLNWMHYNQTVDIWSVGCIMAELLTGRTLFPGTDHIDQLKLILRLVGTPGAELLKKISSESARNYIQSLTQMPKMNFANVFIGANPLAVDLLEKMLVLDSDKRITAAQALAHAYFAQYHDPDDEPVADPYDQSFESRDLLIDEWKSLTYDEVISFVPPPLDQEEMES

How did the IC50 turn out when `CCCn1c(C2CCN(C)CC2)nc(-c2ccc(Cl)c(Cl)c2)c1-c1ccnc(NC2CC2)n1` was run?
Its IC50 is 0.078 nM.

`CCCn1c(C2CCNCC2)nc(-c2ccc(Cl)c(Cl)c2)c1-c1ccnc(NC2CCCCC2)n1` was tested. Which IC50 did it give?
Its IC50 is 4 nM.

`Oc1ccc(-c2cnc3ccc4ccncc4c3c2)cc1` [4-(2,7-phenanthrolin-9-yl)phenol] was tested. Which IC50 did it give?
Its IC50 is over 40000 nM.

From BindingDB's records for doi:10.1016/S1074-5521(03)00159-5 (Merck Research Laboratories, 2003)
